# Experimental data reported in ChEMBL document CHEMBL1138072, “Critical modifications of the ISO-1 scaffold improve its potent inhibition of macrophage migration inhibitory factor (MIF) tautomerase activity” (Bioorg Med Chem Lett, 2006).
# Molecular target: T1, Macrophage migration inhibitory factor (Homo sapiens, UniProt P14174)
# T1 sequence (P14174 whole entry): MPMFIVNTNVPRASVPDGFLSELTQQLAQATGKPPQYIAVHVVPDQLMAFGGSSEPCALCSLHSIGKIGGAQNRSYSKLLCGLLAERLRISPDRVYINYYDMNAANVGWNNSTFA
# Experiment: Inhibition of MIF tautomerase activity
row,SMILES,IC50
1,CCOC(=O)CC1CC(c2ccc(O)cc2)=NO1 (stereo unspecified),12 µM
2,CCCOC(=O)CC1CC(c2ccc(O)cc2)=NO1 (stereo unspecified),4 µM
3,CC(C)OC(=O)CC1CC(c2ccc(O)cc2)=NO1 (stereo unspecified),6 µM
4,O=C(CC1CC(c2ccc(O)cc2)=NO1)OC1CCCCC1 (stereo unspecified),2.5 µM
5,COc1ccc(NC(=O)CC2CC(c3ccc(O)cc3)=NO2)cc1 (stereo unspecified),26 µM
6,O=C(CC1CC(c2ccc(O)cc2)=NO1)NC1CCCCC1 (stereo unspecified),24 µM
7,CC(C)(C)OC(=O)NCCCCNC(=O)CC1CC(c2ccc(O)cc2)=NO1 (stereo unspecified),8.5 µM
8,CC(C)(C)COC(=O)CC1CC(c2ccc(O)cc2)=NO1 (stereo unspecified),1.5 µM
9,CCCCOC(=O)CC1CC(c2ccc(O)cc2)=NO1 (stereo unspecified),3 µM
10,COc1ccc(OC(=O)CC2CC(c3ccc(O)cc3)=NO2)cc1 (stereo unspecified),8.5 µM
11,CC(C)(C)c1ccc(OC(=O)CC2CC(c3ccc(O)cc3)=NO2)cc1 (stereo unspecified),10 µM
12,COC(=O)CC1CC(c2ccc(O)c(F)c2)=NO1 (stereo unspecified),6.5 µM
13,O=C(CC1CC(c2ccc(O)cc2)=NO1)Oc1ccccc1 (stereo unspecified),10 µM
14,O=C(CC1CC(c2ccc(O)cc2)=NO1)OCC1CCCCC1 (stereo unspecified),5 µM
15,NCCCCNC(=O)CC1CC(c2ccc(O)cc2)=NO1 (stereo unspecified),> 100 µM
16,Cc1cc(C)c(OC(=O)CC2CC(c3ccc(O)cc3)=NO2)c(C)c1 (stereo unspecified),20 µM
